Reference: patent publication US7718186B2, “2-alkoxy-6-alkylphenyl-substituted spirocyclic tetramic acid derivatives” (Bayer CropScience AG, priority 2004, dated 2010)

What was measured:
Assay type in all cases: in vivo
Lolium multiflorum [1] = test: Herbicidal pre-emergence action; conditions: greenhouse, 320 g of a.i./ha
Description: (§1) 1. Herbicidal Pre-emergence Action
(§2) Seeds of monocotyledonous and dicotyledonous weed and crop plants are placed into sandy loam in wood fiber pots and covered with soil. The test compounds, formulated in the form of wettable powders (WP) are then, as an aqueous suspension with a water application rate of 600 l/ha (converted), with 0.2% of wetting agent added, applied to the surface of the covering soil in various dosages.
(§3) After the treatment, the pots are placed in the greenhouse and kept under good growth conditions for the test plants. The visual assessment of the emergence damage on the test plants is carried out after a trial period of 3 weeks by comparison with untreated controls (herbicidal effect in percent (%): 100% effect=the plants have died, 0% effect=like control plants).

Avena sativa = test: Herbicidal pre-emergence action; conditions: greenhouse, 320 g of a.i./ha
Description: as §1, §2, §3

Setaria viridis [2] = test: Herbicidal pre-emergence action; conditions: greenhouse, 320 g of a.i./ha
Description: as §1, §2, §3

Lolium multiflorum [3] = test: Herbicidal post-emergence action; conditions: greenhouse, 320 g of a.i./ha
Method: (§4) 2. Herbicidal Post-emergence Action
(§5) Seeds of monocotyledonous and dicotyledonous weed and crop plants are placed into sandy loam in wood fiber pots, covered with soil and cultivated in the greenhouse under good growth conditions. Two to three weeks after sowing, the test plants are treated at the one-leaf stage. The test compounds, formulated as wettable powders (WP), are then, in various dosages with a water application rate of 600 l/ha (converted), with 0.2% of wetting agent added, sprayed onto the green parts of the plants. After the test plants have been kept in the greenhouse under optimum growth conditions for about 3 weeks, the effect of the preparations is rated visually in comparison to untreated controls (herbicidal effect in percent (%): 100% effect=the plants have died, 0% effect=like control plants).

Echinocloa crus-galli = test: Herbicidal post-emergence action; conditions: greenhouse, 320 g of a.i./ha
Method: as §4, §5

Setaria viridis [4] = test: Herbicidal post-emergence action; conditions: greenhouse, 320 g of a.i./ha
Method: as §4, §5

Summer wheat = test: Container trials with cereal in a greenhouse, with and without safener (post-emergence); conditions: crop damage, 28 days after application
Method: (§6) Herbicidal Post-emergence Action
(§7) Seeds of monocotyledonous and dicotyledonous weed and crop plants are placed into sandy loam in wood fiber pots or in plastic pots, covered with soil and cultivated in a greenhouse, during the vegetation period also outdoors outside of the greenhouse, under good growth conditions. Two to three weeks after sowing, the test plants are treated at the one- to three-leaf stage. The test compounds, formulated as wettable powders (WP) or liquid (EC) are, in various dosages with a water application rate of 300 l/ha (converted), with wetting agent (0.2 to 0.3%) added, sprayed onto the plants and the surface of the soil. Three to four weeks after the treatment of the test plants, the effect of the preparations is rated visually in comparison to untreated controls (herbicidal effect in percent (%):
(§8) (100% effect=the plants have died, 0% effect=like control plants).
(§9) If it is additionally to be tested as to whether safeners can improve the plant compatibility of test substances in the case of crop plants, the following options are used for applying the safener: • seeds of the crop plants are, before sowing, dressed with the safener substance (amount of safener stated in percent, based on the weight of the seed) • before the application of the test substances, the crop plants are sprayed with the safener at a certain application rate per hectare (usually 1 day before the application of the test substances) • the safener is applied together with the test substance as a tank mix (amount of safener stated in g/ha or as a ratio, based on the herbicide).
(§10) By comparing the effect of the test substances on crop plants without or with safener treatment, it is possible to assess the effect of the safener substance.
(§11) Container Trials with Cereal in a Greenhouse
(§12) Mefenpyr 1 Day Prior to Herbicide Application

Summer barley = test: as above; conditions: crop damage; 50 g of a.i./ha; 28 days after application
Method: as §6, §7, §8, §9, §10, §11, §12

Compound	Lolium (herbicidal effect in percent) (Lolium multiflorum [1])	Avena (herbicidal effect in percent) (Avena sativa)	Setaria (herbicidal effect in percent) (Setaria viridis [2])	Lolium (herbicidal effect in percent) (Lolium multiflorum [3])	Echinochloa (herbicidal effect in percent) (Echinocloa crus-galli)	Setaria (herbicidal effect in percent) (Setaria viridis [4])	Summer wheat observed (%) (Summer wheat; 12.5 g of a.i./ha)	Summer wheat observed (%) (Summer wheat; 25 g of a.i./ha)	Summer wheat observed (%) (Summer wheat; 50 g of a.i./ha)	Summer barley observed (%) (Summer barley)
CCc1cc(C)cc(OC)c1C1=C(O)C2(CCC(OC)CC2)NC1=O (single isomer, unassigned) [Example I-a-6]	100	100	100	100	100	90	–	–	–	–
CCc1cc(C)cc(OC)c1C1=C(O)C2CCCN2C1=O (stereo not shown) [Example I-a-2]	–	–	–	100	100	100	40	60	95	90
